Test results as given in article PMC11440508, “Dually Labeled Neurotensin NTS1R Ligands for Probing Radiochemical and Fluorescence-Based Binding Assays” (Journal of Medicinal Chemistry, 2024).
Where two headings read alike, the source gives them in different places. Starred links: 1 amine or outer side, 2 acyl side, 3 side chain; linkers in the order of their positions; H or OH if unused. Non-standard residues stand in square brackets, D forms with d. Residues, ends and D or L forms follow the SMILES beside them. Groups on a side chain read outwards from the residue. *: point of attachment. X1 = CN(C)c1ccc2c(-c3ccc(C(=O)*)cc3C(=O)[O-])c3ccc(=[N+](C)C)cc-3oc2c1; X4 = NCCCCNC(=O)N=C(N)NCCC[C@H](N[*:1])C(=O)[*:2]; dTyr(β,β-Me2) = CC(C)(c1ccc(O)cc1)[C@@H](N)C(=O)O; Tyr(β,β-Me2) = CC(C)(c1ccc(O)cc1)[C@H](N)C(=O)O; Gly(piperidin-4-yl) = N[C@H](C(=O)O)C1CCNCC1; X2 = O=C(CCc1cn(CCCN[*:1])nn1)[*:2]; Pent4ynoyl = C#CCCC(=O)*; Pra = C#CC[C@H](N)C(=O)O; NH(CH2)4NH2 = NCCCCN*; CO = O=C([*:1])[*:2]; Propionyl = CCC(=O)*; GABA = NCCCC(=O)O

Experiments:
NTS1R [1] = biological target: T1, NTS1R (Homo sapiens, UniProt P30989); test: Radioligand competition binding with [^3H]UR-MK300 at intact HT-29 colon carcinoma cells; settings: [^3H]UR-MK300, intact HT-29 cells, 23 °C; read-out: NTS1R pKi ± SEM (converted)
T1 sequence (P30989 whole entry): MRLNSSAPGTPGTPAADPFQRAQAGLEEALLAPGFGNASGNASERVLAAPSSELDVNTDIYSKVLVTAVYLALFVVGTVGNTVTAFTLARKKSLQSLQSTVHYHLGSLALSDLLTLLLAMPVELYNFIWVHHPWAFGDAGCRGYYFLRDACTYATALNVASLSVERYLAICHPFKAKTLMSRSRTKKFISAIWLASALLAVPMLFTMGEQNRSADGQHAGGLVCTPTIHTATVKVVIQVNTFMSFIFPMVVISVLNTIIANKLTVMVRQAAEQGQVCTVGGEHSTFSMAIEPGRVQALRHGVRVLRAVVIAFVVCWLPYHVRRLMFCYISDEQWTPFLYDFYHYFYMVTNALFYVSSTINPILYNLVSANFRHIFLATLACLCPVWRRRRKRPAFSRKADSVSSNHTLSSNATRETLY
Experimental: NTS1R binding affinities were determined in a reported competition binding assay[13] using intact hNTS1R-expressing HT-29 colon carcinoma cells and [^3H]UR-MK300 (structure see Figure 1A) as radioligand (competition binding curves shown in Figure S4, Supporting Information).
NTS1R radioligand competition binding experiments with [^3H]UR-MK300 (molar activity: 2.41 TBq/mmol) and the peptides 6–9, 10a, 10b, 13–16, and 18 were performed with intact hNTS1R-expressing human HT-29 colon carcinoma cells at 23 ± 1 °C using a previously reported protocol.[13] […] Cells were seeded one day before the assay, yielding a confluency of at least 90% on the day of the experiment. Total binding data (including total binding in the absence of competitor) were plotted as dpm values against log(concentration competitor) and analyzed by a four-parameter logistic equation (log(inhibitor) vs response–variable slope, GraphPad Prism 5, GraphPad Software, San Diego, CA) to obtain pIC50 values. Individual pIC50 values were converted to pKi values according to the Cheng–Prusoff equation[60] (logarithmic form). To plot average data from individual binding experiments, data were normalized (100% = “top” of the four-parameter logistic fit, 0% = unspecifically bound radioligand).

NTS1R [2] = biological target: T1, NTS1R; test: Fura-2 Ca^2+ assay at CHO-hNTS1R cells; type: cell-based; settings: agonist mode, read-out: NTS1R pEC50 ± SEM (converted)
NTS1R [3] = biological target: T1, NTS1R; test: High-content imaging (HCI) competition binding, adherent CHO-hNTS1R cells; settings: labeled probe 13 ([…]), 90 min, 23 °C
Experimental: The final volume per well was 200 μL. […] All experiments were performed in triplicate.

NTS1R [4] = biological target: T1, NTS1R; test: Flow cytometric (FC) competition binding, suspended CHO-hNTS1R cells; settings: labeled probe 13 (2.6 nM), 90 min, 23 °C
Experimental: Flow cytometry-based NTS1R binding studies were performed with intact CHO-hNTS1R (all kind of experiments) and HT-29 cells (only saturation binding) using a BD FACSCanto II (Becton Dickinson, Heidelberg, Germany), equipped with an argon laser (488 nm) and a red diode laser (640 nm), and a BD High Throughput Sampler (HTS unit) for microtiter plates. Saturation and competition binding experiments were performed in triplicate in 96-well polypropylene plates (Brand 701330, Wertheim, Germany) using the HTS unit for sample injection. Association and dissociation experiments were performed in duplicate in 5 mL polypropylene tubes (VWR, Radnor) using the standard injection port of the flow cytometer. The following gain settings for forward and sideward scatter were applied: FSC, 0 V; SSC, 252 V. Fluorescence was recorded using the PE-channel (excitation: 488 nm, emission: 585 ± 21) nm with a PMT gain of 330–400 V. For measurements using the HTS unit, 45 μL of the sample were injected with a speed of 1.5 μL/s. For measurements, requiring the use of the standard injection port, the medium flow rate ([…]) was used. Measurements were stopped after 30 s (HTS unit) or after counting of 500–3000 gated events (standard injection port). […]
A 96-well polypropylene plate was prefilled with 200 μL of cell suspension. […] Data were analyzed as described for HCI competition binding experiments.

NTS1R [5] = biological target: T1, NTS1R; test: Radiochemical competition binding, adherent CHO-hNTS1R cells; settings: labeled probe [^3H]13 (1.3 nM), 90 min, 23 °C
NTS1R [6] = biological target: T1, NTS1R; test: Radiochemical competition binding, suspended CHO-hNTS1R cells; settings: labeled probe [^3H]13 (1.8 nM), 90 min, 23 °C
NTS1R [7] = biological target: T1, NTS1R; test: Radiochemical competition binding with [^3H]13 at membranes of CHO-hNTS1R cells; settings: labeled probe [^3H]13 ([…]), 50 μM GppNHp, 23 °C
NTS1R [8] = settings: reported binding data, cited from earlier work
NTS1R [9] = biological target: T1, NTS1R; test: Fluorescence anisotropy (FA) competition binding at hNTS1R-displaying BBVs; design: NlucC (C-terminal fragment of nanoluciferase, 11 amino acids) (C); made in house; host or cells: Sf9 insect cells, baculovirus (pIMACE-CMVintP10-hNTS1R-Nluc, DH10MultiBac); budded baculovirus particles; settings: 27 °C

Which Ki (NTS1R [1]) does the source give for `C#CCCC(=O)N[C@H](C(=O)N1CCC[C@H]1C(=O)N[C@@H](CCCNC(N)=NC(=O)NCCCCN)C(=O)N[C@@H](CCCNC(=N)N)C(=O)N1CCC[C@H]1C(=O)N[C@@H](Cc1ccc(O)cc1)C(=O)N[C@H](C(=O)N[C@@H](CC(C)C)C(=O)O)[C@@H](C)CC)C1CCNCC1` [Compound 6, N^α-(Pent-4-ynoyl)-2-(piperidin-4-yl)-Gly-Pro-N^ω-[(4-aminobutyl)aminocarbonyl]Arg-Arg-Pro-Tyr-Ile-Leu Tetrakis(hydrotrifluoroacetate)] (Pent4ynoyl-[Gly(piperidin-4-yl)]P[X4]RPYIL-OH) here?
Its Ki is 0.603 nM.

Which Ki (NTS1R [1]) does the source give for `C#CC[C@H](NC(=O)CCCN)C(=O)N[C@H](C(=O)N1CCC[C@H]1C(=O)N[C@@H](CCCNC(=N)N)C(=O)N[C@@H](CCCNC(=N)N)C(=O)N1CCC[C@H]1C(=O)N[C@@H](Cc1ccc(O)cc1)C(=O)N[C@H](C(=O)N[C@@H](CC(C)C)C(=O)O)[C@@H](C)CC)C1CCNCC1` [Compound 9] (H-[GABA][Pra][Gly(piperidin-4-yl)]PRRPYIL-OH) here?
Its Ki is 0.302 nM.

For `C#CCCC(=O)N[C@H](C(=O)N1CCC[C@H]1C(=O)N[C@@H](CCCNC(=N)NC(=O)NCCCCN)C(=O)N[C@@H](CCCNC(=N)N)C(=O)N1CCC[C@H]1C(=O)N[C@H](C(=O)N[C@H](C(=O)N[C@@H](CC(C)C)C(=O)O)[C@@H](C)CC)C(C)(C)c1ccc(O)cc1)C1CCNCC1` [Compound 10a, N^α-(Pent-4-ynoyl)-2-(piperidin-4-yl)-Gly-Pro-N^ω-[(4-aminobutyl)aminocarbonyl]Arg-Arg-Pro-β,β-dimethyl-L-Tyr-Ile-Leu Tetrakis(hydrotrifluoroacetate)] (Pent4ynoyl-[Gly(piperidin-4-yl)]PR([CO-NH(CH2)4NH2])RP[Tyr(β,β-Me2)]IL-OH), which EC50 (NTS1R [2]) is on record?
Its EC50 is 0.316 nM.

With `C#CCCC(=O)N[C@H](C(=O)N1CCC[C@H]1C(=O)N[C@@H](CCCNC(N)=NC(=O)NCCCCN)C(=O)N[C@@H](CCCNC(=N)N)C(=O)N1CCC[C@H]1C(=O)N[C@@H](C(=O)N[C@H](C(=O)N[C@@H](CC(C)C)C(=O)O)[C@@H](C)CC)C(C)(C)c1ccc(O)cc1)C1CCNCC1` [Compound 10b, N^α-(Pent-4-ynoyl)-2-(piperidin-4-yl)-Gly-Pro-N^ω-[(4-aminobutyl)aminocarbonyl]Arg-Arg-Pro-β,β-dimethyl-D-Tyr-Ile-Leu Tetrakis(hydrotrifluoroacetate)] (Pent4ynoyl-[Gly(piperidin-4-yl)]P[X4]RP[dTyr(β,β-Me2)]IL-OH) as the compound, how does the Ki (NTS1R [1]) read?
Its Ki is 135 nM.

Which Ki (NTS1R [1]) does the source give for `CCC(=O)NCCCC[C@@H](NC(=O)CCc1cn(CCCNC(=O)c2ccc(-c3c4ccc(=[N+](C)C)cc-4oc4cc(N(C)C)ccc34)c(C(=O)[O-])c2)nn1)C(=O)N1CCC[C@H]1C(=O)N[C@@H](CCCNC(=N)N)C(=O)N[C@@H](CCCNC(=N)N)C(=O)N1CCC[C@H]1C(=O)N[C@@H](Cc1ccc(O)cc1)C(=O)N[C@H](C(=O)N[C@@H](CC(C)C)C(=O)O)[C@@H](C)CC` [Compound 15] (X1-[X2][dK](Propionyl)PRRPYIL-OH) here?
Its Ki is 2.95 nM.

With `CCC(=O)NCCCC(=O)N[C@@H](Cc1cn(CCCNC(=O)c2ccc(-c3c4ccc(=[N+](C)C)cc-4oc4cc(N(C)C)ccc34)c(C(=O)[O-])c2)nn1)C(=O)N[C@H](C(=O)N1CCC[C@H]1C(=O)N[C@@H](CCCNC(=N)N)C(=O)N[C@@H](CCCNC(=N)N)C(=O)N1CCC[C@H]1C(=O)N[C@@H](Cc1ccc(O)cc1)C(=O)N[C@H](C(=O)N[C@@H](CC(C)C)C(=O)O)[C@@H](C)CC)C1CCNCC1` [Compound 16] as the compound, how does the Ki (NTS1R [1]) read?
The Ki was 0.724 nM.

For SR142948, which “HCI: pKi ± SEM” value (NTS1R [3]) is on record?
Its value is 9.42 ± 0.21.

What about the “FC: pKi ± SEM” value (NTS1R [4]) of the same compound?
The value was 9.24 ± 0.15.

What about the “RC adherent cells: pKi ± SEM” value (NTS1R [5]) of the same compound?
Its value is 8.31 ± 0.18.

What about the “RC cell suspension: pKi ± SEM” value (NTS1R [6]) of the same compound?
The value was 8.19 ± 0.16.

What about the “pKi ± SEM” value (NTS1R [7]) of the same compound?
Its value is 9.56 ± 0.06.

And the Ki (NTS1R [8]; ref 13)?
The Ki was 1.1 nM.

What about the Ki (NTS1R [8]; ref 52) of the same compound?
Its Ki is 1 nM.

And the “FA: pKi ± SEM” value (NTS1R [9]; labeled probe 13 (0.3 nM), NTS1R-BBVs, 90 min)?
Its value is 8.97.

What about the “FA: pKi” value (NTS1R [9]; labeled probe 18, NTS1R-BBVs) of the same compound?
Its value is 9.19.
